From PubChem BioAssay (NCI)
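Assay format: 96-well plates, 48-hour exposure. Definition used: TGI = concentration required for complete inhibition of growth.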

Key:
Experiment in all cases: inhibition of tumour cell growth, NCI panel, 48 h
DMS 273 small cell lung = test system: DMS 273 small cell lung
UO-31 renal = test system: UO-31 renal
SNB-78 CNS = test system: SNB-78 CNS
A498 renal = test system: A498 renal
DMS 114 small cell lung = test system: DMS 114 small cell lung
LXFL 529 NSCLC = test system: LXFL 529 NSCLC
DLD-1 colon = test system: DLD-1 colon
KM20L2 colon = test system: KM20L2 colon
XF 498 CNS = test system: XF 498 CNS
HOP-18 NSCLC = test system: HOP-18 NSCLC
M19-MEL melanoma = test system: M19-MEL melanoma

Measured: TGI

COc1nc(OC)nc(Sc2ccc(Sc3ccc(Sc4nc(OC)nc(OC)n4)cc3)cc2)n1
> 100 µM: DMS 273 small cell lung | UO-31 renal | SNB-78 CNS | A498 renal | DMS 114 small cell lung | LXFL 529 NSCLC | DLD-1 colon | KM20L2 colon | XF 498 CNS | HOP-18 NSCLC | M19-MEL melanoma
